Test results: patent US6559101B2, “N- (5, 7-dimethoxy [1, 2, 4] triazolo [1, 5-a] pyrimidin-2-yl) arylsulfonamide compounds and their use as herbicides” (Dow AgroSciences LLC, priority 2000, dated 2003)

Tests used:
Format in all cases: in vivo
[1] = tested on: barnyardgrass (Echinochloa crus-galli); assay: Preemergence herbicidal activity; settings: scored after 3 weeks, 0 no injury, 100 complete kill or no germination
Experimental: (§1) The soil matrix was contained in plastic pots with a surface area of 161 square centimeters. When required to ensure good germination and healthy plants, a fungicide treatment and/or other chemical or physical treatment was applied. A weighed amount, determined by the highest rate to be tested, of each test compound was placed in a 20 mL glass vial and was dissolved in 8 mL of a 97:3 v/v (volume/volume) mixture of acetone and dimethyl sulfoxide to obtain concentrated stock solutions. […] The stock solutions obtained were diluted with a 99.9:0.1 mixture of water and Tween® 155 surfactant (ethoxylated sorbitan fatty acid ester) to obtain application solutions of known concentration. The solutions containing the highest concentration to be tested were prepared by diluting 4 mL aliquots of the stock solution with 8.5 mL of the mixture and lower concentrations were prepared by dilution of appropriate smaller portions of the stock solution. A 2.5 mL aliquot of each solution of known concentration was sprayed evenly onto the soil of each seeded pot using a Cornwall 5.0 mL glass syringe fitted with a TeeJet TN-3 hollow cone nozzle to obtain thorough coverage of the soil in each pot. Control pots were sprayed in the same manner with the aqueous mixture. A highest application rate of 4.48 kg/ha is achieved when 50 mg of test compound is employed. The treated pots and control pots were placed in a greenhouse with an approximately 15 hr photoperiod which was maintained at about 23-29° C. during the day and 22-28° C. during the night. Nutrients and water were added on a regular basis and supplemental lighting was provided with overhead metal halide 1000 Watt lamps as necessary. The water was added by top-irrigation. After 3 weeks the condition of the test plants that germinated and grew as compared with that of the untreated plants that germinated and grew was determined visually and scored on a scale of 0 to 100 percent where 0 corresponds to no injury and 100 corresponds to complete kill or no germination.

[2] = tested on: crabgrass (Digitaria sanguinalis); assay: Preemergence herbicidal activity; settings: scored after 3 weeks, 0 no injury, 100 complete kill or no germination
Experimental: as §1

[3] = tested on: giant foxtail (Setaria faberi); assay: Preemergence herbicidal activity; settings: scored after 3 weeks, 0 no injury, 100 complete kill or no germination
Experimental: as §1

[4] = tested on: cocklebur (Xanthium strumarium); assay: Preemergence herbicidal activity; settings: scored after 3 weeks, 0 no injury, 100 complete kill or no germination
Experimental: as §1

[5] = tested on: velvetleaf (Abutilion theophrasti); assay: Preemergence herbicidal activity; settings: scored after 3 weeks, 0 no injury, 100 complete kill or no germination
Experimental: as §1

[6] = tested on: blackgrass (Alopecurus myosuroides); assay: Preemergence herbicidal activity; settings: scored after 3 weeks, 0 no injury, 100 complete kill or no germination
Experimental: as §1

wild oats (Avena fatua) [7] = assay: Preemergence herbicidal activity; settings: scored after 3 weeks, 0 no injury, 100 complete kill or no germination
Experimental: as §1

[8] = tested on: morningglory (Ipomoea hederacea); assay: Preemergence herbicidal activity; settings: scored after 3 weeks, 0 no injury, 100 complete kill or no germination
Experimental: as §1

[9] = tested on: Rox orange sorghum (Sorghum bicolor); assay: Preemergence herbicidal activity; settings: scored after 3 weeks, 0 no injury, 100 complete kill or no germination
Experimental: as §1

[10] = tested on: wild poinsettia (Euphorbia heterophylla); assay: Preemergence herbicidal activity; settings: scored after 3 weeks, 0 no injury, 100 complete kill or no germination
Experimental: as §1

[11] = tested on: pigweed (Amaranthus retroflexus); assay: Preemergence herbicidal activity; settings: scored after 3 weeks, 0 no injury, 100 complete kill or no germination
Experimental: as §1

[12] = tested on: wild buckwheat (Polygonum convolvulus); assay: Postemergence herbicidal activity; settings: scored after 2 weeks, 0 no injury, 100 complete kill
Experimental: (§2) Seeds of the desired test plant species were planted in Grace-Sierra MetroMix® 306 planting mixture, which typically has a pH of 6.0 to 6.8 and an organic matter content of about 30 percent, in plastic pots with a surface area of 64 square centimeters. When required to ensure good germination and healthy plants, a fungicide treatment and/or other chemical or physical treatment was applied. The plants were grown for 7-21 days in a greenhouse with an approximately 15 hr photoperiod which was maintained at about 23-29° C. during the day and 22-28° C. during the night. Nutrients and water were added on a regular basis and supplemental lighting was provided with overhead metal halide 1000 Watt lamps as necessary. The plants were employed for testing when they reached the first or second true leaf stage. A weighed amount of each test compound, determined by the highest rate to be tested, was placed in a 20 mL glass vial and was dissolved in 4 mL of a 97:3 v/v (volume/volume) mixture of acetone and dimethyl sulfoxide to obtain concentrated stock solutions. […] The concentrated stock solutions obtained were diluted with an aqueous mixture containing acetone, water, iso-propyl alcohol, dimethyl sulfoxide, Atplus 411F crop oil concentrate, and Triton X-155 surfactant (methylenebisdiamyl phenoxy polyethoxy ethanol) in a 48.5:39:10:1.5:1.0:0.02 v/v ratio to obtain spray solutions of known concentration. The solutions containing the highest concentration to be tested were prepared by diluting 2 mL aliquots of the stock solution with 13 mL of the mixture and lower concentrations were prepared by dilution of appropriate smaller portions of the stock solution. Approximately 1.5 mL aliquots of each solution of known concentration were sprayed evenly onto each of the test plant pots using a Devilbiss atomizer driven by compressed air pressure of 2 to 4 psi (140 to 280 kiloPascals) to obtain thorough coverage of each plant. Control plants were sprayed in the same manner with the aqueous mixture. In this test an application rate of 1 ppm results in the application of approximately 1 g/ha. The treated plants and control plants were placed in a greenhouse as described above and watered by sub-irrigation to prevent wash-off of the test compounds. After 2 weeks the condition of the test plants as compared with that of the untreated plants was determined visually and scored on a scale of 0 to 100 percent where 0 corresponds to no injury and 100 corresponds to complete kill.

[13] = tested on: giant foxtail (Setaria faberi); assay: Postemergence herbicidal activity; settings: scored after 2 weeks, 0 no injury, 100 complete kill
Experimental: as §2

[14] = tested on: cocklebur (Xanthium strumarium); assay: Postemergence herbicidal activity; settings: scored after 2 weeks, 0 no injury, 100 complete kill
Experimental: as §2

[15] = tested on: velvetleaf (Abutilion theophrasti); assay: Postemergence herbicidal activity; settings: scored after 2 weeks, 0 no injury, 100 complete kill
Experimental: as §2

viola (Viola tricolor) = assay: Postemergence herbicidal activity; settings: scored after 2 weeks, 0 no injury, 100 complete kill
Experimental: as §2

[16] = tested on: chickweed (Stellaria media); assay: Postemergence herbicidal activity; settings: scored after 2 weeks, 0 no injury, 100 complete kill
Experimental: as §2

[17] = tested on: blackgrass (Alopecurus myosuroides); assay: Postemergence herbicidal activity; settings: scored after 2 weeks, 0 no injury, 100 complete kill
Experimental: as §2

wild oats (Avena fatua) [18] = assay: Postemergence herbicidal activity; settings: scored after 2 weeks, 0 no injury, 100 complete kill
Experimental: as §2

[19] = tested on: lambsquarters (Chenopodium album); assay: Postemergence herbicidal activity; settings: scored after 2 weeks, 0 no injury, 100 complete kill
Experimental: as §2

[20] = tested on: Rox orange sorghum (Sorghum bicolor); assay: Postemergence herbicidal activity; settings: scored after 2 weeks, 0 no injury, 100 complete kill
Experimental: as §2

[21] = tested on: pigweed (Amaranthus retroflexus); assay: Postemergence herbicidal activity; settings: scored after 2 weeks, 0 no injury, 100 complete kill
Experimental: as §2

[22] = tested on: morningglory (Ipomoea hederacea); assay: Postemergence herbicidal activity; settings: 62.5 ppm; scored after 2 weeks; 0 no injury, 100 complete kill
Experimental: as §2

COc1cc(OC)n2nc(NS(=O)(=O)c3c(OC)cccc3OC)nc2n1 [Compound 2]
Preemergence herbicidal activity ECHCG ([1]; 17.5 g/Ha): 60%
Preemergence herbicidal activity DIGSA ([2]; 17.5 g/Ha): 80%
Preemergence herbicidal activity SETFA ([3]; 17.5 g/Ha): 100%
Preemergence herbicidal activity XANST ([4]; 17.5 g/Ha): 80%
Preemergence herbicidal activity ABUTH ([5]; 17.5 g/Ha): 75%
Preemergence herbicidal activity ALOMY ([6]; 17.5 g/Ha): 100%
Preemergence herbicidal activity AVEFA (wild oats (Avena fatua) [7]; 17.5 g/Ha): 75%
Preemergence herbicidal activity IPOHE ([8]; 17.5 g/Ha): 85%
Preemergence herbicidal activity SORBI ([9]; 17.5 g/Ha): 95%
Preemergence herbicidal activity EPHHL ([10]; 17.5 g/Ha): 85%
Preemergence herbicidal activity AMARE ([11]; 17.5 g/Ha): 100%
Postemergence herbicidal activity POLCO ([12]; 15.6 ppm): 98%
Postemergence herbicidal activity SETFA ([13]; 15.6 ppm): 98%
Postemergence herbicidal activity XANST ([14]; 15.6 ppm): 70%
Postemergence herbicidal activity ABUTH ([15]; 15.6 ppm): 95%
Postemergence herbicidal activity VIOTR (viola (Viola tricolor); 15.6 ppm): 90%
Postemergence herbicidal activity STEME ([16]; 15.6 ppm): 98%
Postemergence herbicidal activity ALOMY ([17]; 15.6 ppm): 98%
Postemergence herbicidal activity AVEFA (wild oats (Avena fatua) [18]; 15.6 ppm): 98%
Postemergence herbicidal activity CHEAL ([19]; 15.6 ppm): 90%
Postemergence herbicidal activity SORBI ([20]; 15.6 ppm): 100%
Postemergence herbicidal activity AMARE ([21]; 15.6 ppm): 95%

COC(=O)c1cccc(OC)c1S(=O)(=O)Nc1nc2nc(OC)cc(OC)n2n1 [Compound 7]
Preemergence herbicidal activity ECHCG ([1]; 70 g/Ha): 20%
Preemergence herbicidal activity DIGSA ([2]; 70 g/Ha): 40%
Preemergence herbicidal activity SETFA ([3]; 70 g/Ha): 100%
Preemergence herbicidal activity XANST ([4]; 70 g/Ha): 0%
Preemergence herbicidal activity ABUTH ([5]; 70 g/Ha): 0%
Preemergence herbicidal activity ALOMY ([6]; 70 g/Ha): 100%
Preemergence herbicidal activity AVEFA (wild oats (Avena fatua) [7]; 70 g/Ha): 70%
Preemergence herbicidal activity IPOHE ([8]; 70 g/Ha): 10%
Preemergence herbicidal activity SORBI ([9]; 70 g/Ha): 95%
Preemergence herbicidal activity EPHHL ([10]; 70 g/Ha): 20%
Preemergence herbicidal activity AMARE ([11]; 70 g/Ha): 100%
Postemergence herbicidal activity POLCO ([12]; 62.5 ppm): 85%
Postemergence herbicidal activity SETFA ([13]; 62.5 ppm): 95%
Postemergence herbicidal activity XANST ([14]; 62.5 ppm): 40%
Postemergence herbicidal activity ABUTH ([15]; 62.5 ppm): 70%
Postemergence herbicidal activity VIOTR (viola (Viola tricolor); 62.5 ppm): 80%
Postemergence herbicidal activity STEME ([16]; 62.5 ppm): 90%
Postemergence herbicidal activity ALOMY ([17]; 62.5 ppm): 95%
Postemergence herbicidal activity AVEFA (wild oats (Avena fatua) [18]; 62.5 ppm): 90%
Postemergence herbicidal activity IPOHE [22]: 80%
Postemergence herbicidal activity SORBI ([20]; 62.5 ppm): 80%
Postemergence herbicidal activity AMARE ([21]; 62.5 ppm): 95%

COc1cc(OC)n2nc(NS(=O)(=O)c3c(OCCF)cccc3C(F)(F)F)nc2n1 [Compound 3, N-(5,7-dimethoxy[1,2,4]triazolo[1,5-a]pyrimidin-2-yl)-2-(2-fluoroethoxy)-6-(trifluoromethyl)benzenesulfonamide]
Preemergence herbicidal activity ECHCG ([1]; 17.5 g/Ha): 100%
Preemergence herbicidal activity DIGSA ([2]; 17.5 g/Ha): 100%
Preemergence herbicidal activity SETFA ([3]; 17.5 g/Ha): 100%
Preemergence herbicidal activity XANST ([4]; 17.5 g/Ha): 100%
Preemergence herbicidal activity ABUTH ([5]; 17.5 g/Ha): 100%
Preemergence herbicidal activity ALOMY ([6]; 17.5 g/Ha): 100%
Preemergence herbicidal activity AVEFA (wild oats (Avena fatua) [7]; 17.5 g/Ha): 95%
Preemergence herbicidal activity IPOHE ([8]; 17.5 g/Ha): 98%
Preemergence herbicidal activity SORBI ([9]; 17.5 g/Ha): 100%
Preemergence herbicidal activity EPHHL ([10]; 17.5 g/Ha): 90%
Preemergence herbicidal activity AMARE ([11]; 17.5 g/Ha): 100%
Postemergence herbicidal activity POLCO ([12]; 3.9 ppm): 98%
Postemergence herbicidal activity SETFA ([13]; 3.9 ppm): 98%
Postemergence herbicidal activity XANST ([14]; 3.9 ppm): 75%
Postemergence herbicidal activity ABUTH ([15]; 3.9 ppm): 80%
Postemergence herbicidal activity VIOTR (viola (Viola tricolor); 3.9 ppm): 90%
Postemergence herbicidal activity STEME ([16]; 3.9 ppm): 95%
Postemergence herbicidal activity ALOMY ([17]; 3.9 ppm): 95%
Postemergence herbicidal activity AVEFA (wild oats (Avena fatua) [18]; 3.9 ppm): 70%
Postemergence herbicidal activity CHEAL ([19]; 3.9 ppm): 95%
Postemergence herbicidal activity SORBI ([20]; 3.9 ppm): 70%
Postemergence herbicidal activity AMARE ([21]; 3.9 ppm): 98%
